Tested on: appetite
Experiment: Anorectic test: length of spaghetti eaten by starved mice during a two hour test period
Format: in vivo
Conditions: 100 mg/kg per os, dosed one hour before test, overnight-starved male mice, (mean length eaten by control - test)/control × 100
Procedure: The compounds of the invention may be tested for anorectic properties by the following procedure:
Groups of 8 or 10 male mice weighing 22-24 grams are starved overnight, although access to water is not restricted. The animals are dosed with the test drug or vehicle alone (control) one hour before they are placed individually into glass jars. The jars (100 mm diameter × 80 mm high) have lids fitted with a glass tube to accommodate a stick of spaghetti of approximate length of 450 mm. The glass tube is arranged such that only 5 mm of spaghetti is exposed for eating by the mouse. The length of spaghetti eaten during a two hour test period is indicative of the appetite of the animal.
When tested by this procedure at a dose of 100 mg/kg per os the following results were obtained: […]

| SMILES | % Inhibition of appetite [%] |
| --- | --- |
| C[C@@H](Cc1ccccc1)NC(=S)NC(=O)c1ccccc1 [Example 1, N-Benzoyl-N'-(1-methyl-2-phenyl)ethylthiourea] | 90 |
| O=C(NC(=S)NCCc1ccccc1)c1ccccc1 [Example 2, N-Benzoyl-N'-phenthylthiourea] | 49 |
| COc1ccc(C(=O)NC(=S)N[C@@H](C)Cc2ccccc2)cc1 [Example 3, N-(4-Methoxybenzoyl)-N'-(1-methyl-2-phenyl)ethylthiourea] | 52 |
| C[C@@H](Cc1ccccc1)NC(=S)NC(=O)c1cccc(C(F)(F)F)c1 [Example 4, N-(3-Trifluoromethylbenzoyl)-N'-(1-methyl-2-phenyl)-ethylthiourea] | 49 |
| C[C@@H](Cc1ccccc1)NC(=S)NC(=O)c1ccc(Cl)cc1 [Example 5, N-(4-Chlorobenzoyl)-N'-(1-methyl-2-phenyl)ethylthiourea] | 41 |
| C[C@@H](Cc1ccccc1)NC(=S)NC(=O)c1ccco1 [Example 6] | 40 |
| Cc1cccc(C(=O)NC(=S)N[C@@H](C)Cc2ccccc2)c1 [Example 7, N-(3-Toluoyl)-N'-(1-methyl-2-phenyl)ethylthiourea] | 53 |

Reference: US3931244A, “Thioureas” (John Wyeth & Brother Limited, priority 1973, dated 1976)
